Assay [1] has as its target PIK3CA (human) (UniProt P42336). Kind of assay: Inhibition of A2780 Cell Proliferation.
Assay [2] shares this target. Kind of assay: Inhibition of PIK3CA Kinase Activity.

PIK3CA (human), sequence (P42336 whole entry, looked up): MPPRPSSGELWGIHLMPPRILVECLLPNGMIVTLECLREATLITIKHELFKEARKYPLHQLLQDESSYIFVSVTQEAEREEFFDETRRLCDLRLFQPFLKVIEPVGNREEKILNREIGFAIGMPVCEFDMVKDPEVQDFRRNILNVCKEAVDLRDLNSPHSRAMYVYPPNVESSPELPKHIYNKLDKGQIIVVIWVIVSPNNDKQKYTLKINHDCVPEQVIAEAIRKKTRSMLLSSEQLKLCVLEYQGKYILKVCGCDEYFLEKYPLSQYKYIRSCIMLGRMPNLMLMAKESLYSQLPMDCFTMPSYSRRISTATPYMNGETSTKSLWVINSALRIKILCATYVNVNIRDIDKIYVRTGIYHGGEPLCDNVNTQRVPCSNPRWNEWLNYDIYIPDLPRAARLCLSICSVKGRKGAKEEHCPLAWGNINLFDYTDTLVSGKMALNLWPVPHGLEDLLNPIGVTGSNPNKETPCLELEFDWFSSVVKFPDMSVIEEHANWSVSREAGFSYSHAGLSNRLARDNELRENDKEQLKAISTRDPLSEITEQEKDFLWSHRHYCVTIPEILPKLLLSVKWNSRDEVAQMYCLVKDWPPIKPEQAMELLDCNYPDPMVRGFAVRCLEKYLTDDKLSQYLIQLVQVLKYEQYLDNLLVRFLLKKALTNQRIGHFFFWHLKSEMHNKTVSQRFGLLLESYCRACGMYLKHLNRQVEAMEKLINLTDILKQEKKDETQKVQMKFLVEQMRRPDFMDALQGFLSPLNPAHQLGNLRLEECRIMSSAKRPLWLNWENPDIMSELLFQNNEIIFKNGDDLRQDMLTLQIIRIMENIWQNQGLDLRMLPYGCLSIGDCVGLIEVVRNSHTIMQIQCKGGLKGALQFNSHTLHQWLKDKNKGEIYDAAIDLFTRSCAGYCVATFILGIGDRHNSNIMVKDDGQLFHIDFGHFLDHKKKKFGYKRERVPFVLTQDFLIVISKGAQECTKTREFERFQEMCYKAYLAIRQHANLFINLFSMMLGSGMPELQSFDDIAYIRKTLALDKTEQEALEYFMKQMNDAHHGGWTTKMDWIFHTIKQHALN

For the compound `CC(=O)Nc1cn2cc(-c3cnc(N)c(C(F)(F)F)c3)c(F)cc2n1`, in assay [1], the EC50 was less than 25 µM. In assay [2], the IC50 was less than 1000 nM.
For the compound `CNC(=O)Nc1nc2ccc(-c3ccc(N)nc3)cc2s1`, the EC50 in assay [1] is less than 10 µM. In assay [2], this compound yielded an IC50 of less than 1000 nM.
On the same counts, the results for `Nc1ncc(-c2ccc3nc(NC(=O)c4cccc(F)c4)cn3c2)cc1C(F)(F)F` are less than 10 µM and less than 1000 nM.
Consider `C[C@@H](N)C(=O)Nc1cn2nc(-c3cnc(N)c(C(F)(F)F)c3)ccc2n1`, for which the EC50 in assay [1] was less than 10 µM. The same compound gave an IC50 in assay [2] of less than 1000 nM.
For the compound `CC(=O)Nc1cn2cc(-c3cnc(N)c(-c4ccccc4C(F)(F)F)c3)ccc2n1`, the EC50 in assay [1] was less than 10 µM. The compound further gave an IC50 in assay [2] of less than 1000 nM.
On the same counts, the results for `C[C@@H](NC(=O)OC(C)(C)C)C(=O)Nc1cn2nc(-c3cnc(N)c(C(F)(F)F)c3)ccc2n1` are less than 10 µM and less than 1000 nM.
`Nc1ncc(-c2ccc3nc(NC(=O)c4ccc(F)cc4)cn3c2)cc1C(F)(F)F`: in assay [1], the EC50 is less than 1 µM. In assay [2], the IC50 is less than 1000 nM.
`Nc1ncc(-c2ccc3nc(NC(=O)C4CNC4)cn3c2)cc1C(F)(F)F` returned an EC50 in assay [1] of less than 10 µM. This compound yielded an IC50 in assay [2] of less than 1000 nM.
`CC(=O)Nc1ccc(-c2c(NC(C)=O)nc3ccc(-c4cnc(N)c(C(F)(F)F)c4)cn23)cc1` gave an EC50 in assay [1] of less than 25 µM. This compound displayed an IC50 in assay [2] of less than 1000 nM.
For `CCCNc1ccc(-c2ccc3nc(NC(C)=O)sc3c2)cn1`, the EC50 in assay [1] was less than 25 µM. This compound displayed an IC50 in assay [2] of less than 1000 nM.
With `Nc1ncc(-c2ccc3nc(NC(=O)CO[C@@H]4CCNC4)cn3n2)cc1C(F)(F)F`, in assay [1], the EC50 is less than 1 µM. This compound had an IC50 in assay [2] of less than 1000 nM.
Regarding `CC(C)C(=O)Nc1cn2cc(-c3cnc(N)c(OCC(F)(F)F)n3)ccc2n1`, the EC50 in assay [1] is less than 10 µM. The compound also returned an IC50 in assay [2] of less than 1000 nM.
In the case of `CC(=O)Nc1nc2ccc(-c3cnc(N)c(Br)c3)cn2c1Br`, the EC50 in assay [1] was less than 10 µM. The compound also returned an IC50 in assay [2] of less than 1000 nM.
With `CC(=O)Nc1cn2cc(-c3cnc(N)c(-c4cccc(F)c4)c3)ccc2n1`, the EC50 in assay [1] is less than 10 µM. The compound further returned an IC50 in assay [2] of less than 1000 nM.
In assay [1], `Nc1ncc(-c2ccc3nc(NC(=O)CO[C@@H]4CCNC4)cn3c2)cc1C(F)(F)F` registered an EC50 of less than 10 µM. Also, the IC50 in assay [2] is less than 1000 nM.
In assay [1], `NC(=O)Nc1cn2cc(-c3cnc(N)c(C(F)(F)F)c3)ccc2n1` came in with an EC50 of less than 10 µM. This compound yielded an IC50 in assay [2] of less than 1000 nM.
`CC(=O)Nc1cn2cc(-c3cnc(N)c(N4CCN(C)CC4)n3)ccc2n1`: the EC50 in assay [1] is less than 10 µM. Besides, in assay [2], the IC50 is less than 1000 nM.
On to `CC(=O)Nc1cn2cc(-c3cnc(N)c(OC4CN(C(=O)OC(C)(C)C)C4)n3)ccc2n1`, for which the EC50 in assay [1] is less than 1 µM. In assay [2], this compound yielded an IC50 of less than 1000 nM.
In turn, `N#Cc1cccc(C(=O)Nc2cn3cc(-c4cnc(N)c(C(F)(F)F)c4)ccc3n2)c1` registered an EC50 in assay [1] of less than 10 µM. The same compound gave an IC50 in assay [2] of less than 1000 nM.
As to `CC(=O)Nc1cn2cc(-c3cnc(N)c(C)c3)ccc2n1`, the EC50 in assay [1] was less than 10 µM. Also, the IC50 in assay [2] was less than 1000 nM.
Take `CC(=O)Nc1cn2nc(-c3cnc(N)c(Cl)c3)ccc2n1`: the EC50 in assay [1] is less than 1 µM. Further, the IC50 in assay [2] was less than 1000 nM.
Consider `CN(C)CCCC(=O)Nc1cn2nc(-c3cnc(N)c(C(F)(F)F)c3)ccc2n1`, for which the EC50 in assay [1] was less than 1 µM. The same compound yielded an IC50 in assay [2] of less than 1000 nM.
`Nc1ncc(-c2ccc3nc(NC(=O)COC4CCNCC4)cn3c2)cc1C(F)(F)F`: in assay [1], the EC50 is less than 10 µM. In assay [2], the IC50 was less than 1000 nM.
On the same counts, the results for `COC[C@@H]1CCCN1C(=O)Nc1cn2cc(-c3cnc(N)c(C(F)(F)F)c3)ccc2n1` are less than 25 µM and less than 1000 nM.
The compound `CC(=O)Nc1cn2cc(-c3cnc(N)c(OC4CCN(C)CC4)n3)ccc2n1` had an EC50 in assay [1] of less than 25 µM. For the same compound, in assay [2], the IC50 was less than 10000 nM.
On to `CNCC(=O)Nc1cn2nc(-c3cnc(N)c(C(F)(F)F)c3)ccc2n1`, for which the EC50 in assay [1] was less than 1 µM. In assay [2], this compound displayed an IC50 of less than 1000 nM.
As to `CC(=O)Nc1cn2cc(-c3cnc(N)c(-c4cccc(OC(F)(F)F)c4)c3)ccc2n1`, the EC50 in assay [1] was less than 1 µM. The compound also returned an IC50 in assay [2] of less than 1000 nM.
On the same counts, the results for `C=Cc1c(NC(C)=O)nc2ccc(-c3cnc(N)c(C(F)(F)F)c3)cn12` are less than 25 µM and less than 1000 nM.
Regarding `CCOC(=O)CC(=O)Nc1cn2cc(-c3cnc(N)c(C(F)(F)F)c3)ccc2n1`, in assay [1], the EC50 was less than 10 µM. Moreover, in assay [2], the IC50 was less than 1000 nM.
On the same counts, the results for `Cc1ccc(C2CCCN2C(=O)Nc2cn3cc(-c4cnc(N)c(C(F)(F)F)c4)ccc3n2)s1` (stereo not drawn) are less than 25 µM and less than 1000 nM.
Take `CC(=O)Nc1nc2ccc(-c3cnc(N)c(F)c3)cc2s1`: the EC50 in assay [1] was less than 10 µM. In assay [2], this compound had an IC50 of less than 1000 nM.
`CC(=O)Nc1cn2cc(-c3cnc(N)c(C(=O)N4CCCC4)c3)ccc2n1` registered an EC50 in assay [1] of less than 25 µM. In assay [2], this compound returned an IC50 of less than 1000 nM.
On the same counts, the results for `CCCc1c(NC(C)=O)nc2ccc(-c3cnc(N)c(C(F)(F)F)c3)cn12` are less than 25 µM and less than 1000 nM.
`COC(=O)C1CCN(C(=O)Nc2cn3cc(-c4cnc(N)c(C(F)(F)F)c4)ccc3n2)C1` (stereo not drawn) displayed an EC50 in assay [1] of less than 10 µM. Moreover, the IC50 in assay [2] was less than 1000 nM.

As usually defined, the EC50 is the concentration at which the effect is half-maximal. One may read the IC50 as the concentration that gives 50% inhibition.
